Results reported in US11793849B2, “Method of Chinese herbal medicine extract used for treating multiple diseases caused by drug resistant bacteria infection” (priority 2016, dated 2023).
≈ marks a conversion by molar mass, not a printed value.

Tested on: ATCC25922
Experiment: MIC determination, control strain ATCC25922
Format: cell-based
Details: EA = 95% ethanol extract

NCC[C@H](O)C(=O)N[C@@H]1C[C@H](N)[C@@H](O[C@H]2O[C@H](CN)[C@@H](O)[C@H](O)[C@H]2O)[C@H](O)[C@H]1O[C@H]1O[C@H](CO)[C@@H](O)[C@H](N)[C@H]1O [AMK, Amikacin]
MIC: 4 µg/mL (≈ 6.83 µM)
